Here are results for seven compounds from US6777428B1, “5-HT1f agonist” (Eli Lilly and Company, priority 1999, dated 2004).

Molecules are shown by their SMILES. Structures can show the parent of a compound that is named as a salt.

On to `Cl.Nc1cccc(C(=O)C2CCNCC2)c1`, for which the melting point lay within 208 to 210 °C. Under `CN1CCC(C(=O)c2cccc(NC(=O)c3ccc(F)cc3I)c2)CC1.Cl` stands over 250 °C; under `CN1CCC(C(=O)c2cccc(NC(=O)c3ccc(F)cc3F)c2)CC1` (as salt: hydrochloride), 181 to 183 °C; under `CN1CCC(C(=O)c2cccc(NC(=O)c3ccc(O)cc3)c2)CC1` (as salt: hydrochloride), over 200 °C. Then `O=C(Nc1cccc(C(=O)C2CCNCC2)c1)c1ccc(F)cc1` (as salt: hydrochloride), with over 225 °C; and `CN1CCC(C(=O)c2cccc(NC(=O)c3ccco3)c2)CC1` (as salt: hydrochloride), with over 200 °C. In turn, `CN1CCC(C(=O)c2cccc(NC(=O)c3ccncc3)c2)CC1` (as salt: hydrochloride) had a melting point of over 200 °C.
